Columns and labels:
[1] = tested on: a variety of test species; test: Pre-emergence herbicidal activity (glasshouse, sprayed one day after sowing, evaluated after 13 days); type: in vivo; set-up: key: 5=total damage to plant; 0=no damage to plant; conditions: application pre-emergence, rate 1000 g/Ha, scale 0-5
How it was run: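 Sow in pots of standard soil; after one day under glasshouse conditions, spray compound (acetone/water 50:50 formulation, 0.5% Tween 20, diluted in water). Grow on at 24/16 °C, 14 h light, 65% humidity with twice-daily watering. Assess at 13 days, 0–5 damage scale.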

[2] = tested on: a variety of test species; test: Post-emergence herbicidal activity (glasshouse, sprayed after 8 days cultivation, evaluated after 13 days); type: in vivo; set-up: key: 5=total damage to plant; 0=no damage to plant; conditions: rate 1000 g/Ha, scale 0-5
How it was run: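 Pot-grown plants, 8 days after sowing, were sprayed with compound formulated in acetone/water (50:50) with 0.5% Tween 20. Glasshouse conditions 24/16° C day/night, 14 h light, 65% humidity; damage scored after 13 days on a 0 (none) to 5 (total) scale.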

Row | SMILES | Pre-emergence herbicidal damage score, ABUTH [1] | Pre-emergence herbicidal damage score, ALOMY [1] | Pre-emergence herbicidal damage score, AMARE [1] | Pre-emergence herbicidal damage score, ECHCG [1] | Pre-emergence herbicidal damage score, SETFA [1] | Pre-emergence herbicidal damage score, ZEAMX [1] | ABUTH (Abutilon theophrasti) damage score, application post-emergence [2] | ALOMY (Alopecurus myosuroides) damage score, application post-emergence [2] | AMARE (Amaranthus retroflexus) damage score, application post-emergence [2] | ECHCG (Echinochloa crus-galli) damage score, application post-emergence [2] | SETFA (Setaria faberi) damage score, application post-emergence [2] | ZEAMX (Zea mays) damage score, application post-emergence [2]
1 | CCC(=O)OC1C(C)=C(Cl)C(=O)N1c1cc(C(C)(C)C)on1 (centres unmarked) [A93] | 5 | 4 | 5 | 4 | 5 | 3 | 5 | 5 | 5 | 5 | 5 | 4
2 | CCOC(=O)OC1C(C)=C(Cl)C(=O)N1c1noc(C(C)(C)C)c1C#N (centres unmarked) [A96] | 5 | 4 | 5 | 5 | 5 | 3 | 5 | 5 | 5 | 5 | 5 | 5
3 | CC1=C(Cl)C(=O)N(c2noc(C(C)(C)C)c2C#N)C1Cl (centres unmarked) [A97, 5-tert-butyl-3-(2A-dichloro-3-methyl-5-oxo-2H-pyrrol-1-yl)isoxazole-4-carbonitrile] | 5 | 4 | 5 | 4 | 5 | 3 | 5 | 5 | 5 | 5 | 5 | 3
4 | CC1=C(Cl)C(=O)N(c2noc(C(C)(C)C)c2C#N)C1OS(C)(=O)=O (centres unmarked) [A98] | 5 | 3 | 5 | 5 | 5 | 3 | 5 | 5 | 5 | 5 | 5 | 4
5 | CCC(=O)OC1C(C)=C(Cl)C(=O)N1c1cc(C(C)(CC)CC#N)on1 (centres unmarked) [A99] | 5 | 4 | 5 | 5 | 5 | 3 | 5 | 5 | 5 | 5 | 5 | 5
6 | CC1=C(Cl)C(=O)N(c2noc(C(C)(C)C)c2C#N)C1 [A102] | 5 | 4 | 5 | 4 | 5 | 3 | 5 | 5 | 5 | 5 | 5 | 4
7 | COC1=C(Cl)C(=O)N(c2cc(C(C)(C)C)on2)C1O (centres unmarked) [B1] | 5 | 4 | 5 | 5 | 3 | 4 | 5 | 5 | 5 | 5 | 5 | 5
8 | CNC1=C(Cl)C(=O)N(c2cc(C(C)(C)C)on2)C1O (centres unmarked) [C1] | 3 | 2 | 5 | 4 | 4 | 1 | 5 | 4 | 5 | 5 | 4 | 1
9 | CN(C)C1=C(Cl)C(=O)N(c2cc(C(C)(C)C)on2)C1O (centres unmarked) [C2] | 1 | 1 |  | 2 | 1 | 1 | 5 | 4 | 5 | 5 | 4 | 3
10 | C=C(C)CNC1=C(Cl)C(=O)N(c2cc(C(C)(C)C)on2)C1O (centres unmarked) [C3] | 5 | 3 | 5 | 4 | 3 | 2 | 5 | 4 | 5 | 5 | 5 | 2
11 | CC(C)(C)c1cc(N2C(=O)C(Cl)=C(NCC3CC3)C2O)no1 (centres unmarked) [C4] | 5 | 2 | 5 | 5 | 4 | 3 | 5 | 5 | 5 | 5 | 5 | 4
12 | C#CCNC1=C(Cl)C(=O)N(c2cc(C(C)(C)C)on2)C1O (centres unmarked) [C5, 1-(5-tert-butylisoxazol-3-yl)-4-chloro-2-hydroxy-3-(prop-2-ynylamino)-2H-pyrrol-5-one] | 5 | 3 | 5 | 5 | 4 | 3 | 5 | 5 | 5 | 5 | 5 | 5
13 | CC(C)(C)c1cc(N2C(=O)C(Cl)=C(N)C2O)no1 (centres unmarked) [C6, 3-amino-1-(5-tert-butylisoxazol-3-yl)-4-chloro-2-hydroxy-2H-pyrrol-5-one] | 5 | 4 | 5 | 5 | 4 | 4 | 3 | 5 | 5 | 5 | 5 | 5
14 | CC(C)(C)c1cc(N2C(=O)C(Cl)=C(NC3CCC3)C2O)no1 (centres unmarked) [C9] | 0 | 0 | 3 | 0 | 0 | 0 | 0 | 0 | 2 | 0 | 0 | 0

— US9936701B2, “Herbicidal compounds” (Syngenta Participations AG, priority 2013, dated 2018)
